# Data from US9439984B2, “Macrocycles” (priority 2012, dated 2016).
# Columns and labels:
# [1] = Th(IV) spectrophotometric EDTA competition titration (solution thermodynamics); settings: for pM value (negative logarithm of the free metal concentration): Th(IV); for log β110 (cumulative stability constant) with Th(IV): 25° C., 0.1 M KCl, 5% DMSO, βmlh for mM+lL+hH ⇄ MmLlHh
# Description: All spectrophotometric titrations were carried out with constant stirring and a blanket of argon flow in a jacketed cell connected to a recirculating water bath to maintain the temperature at 25° C. All solutions contained 0.1 M KCl with 5% DMSO (v/v), for consistency with titrations where DMSO was used to ensure solubility. The ligand was added as a 50 mM DMSO stock solution, and Th(IV) as a standardized 10 mM stock solution in nitric acid (79 mM). The HCl and KOH solutions were prepared by dilution of Dilut-It (J. T. Baker) concentrated solutions with degassed Millipore water containing 5% DMSO, to maintain the DMSO concentration constant throughout the titration. The 0.1 M HCl solution was standardized by titration of Tris using bromocresol green as an indicator, and the 0.1 M KOH solution was standardized by titration of KHP using phenolphthalein as an indicator. The glass electrode (Nova Analytics Pinnacle) used for the pH measurements was calibrated by adding 2.000 mL 0.1 M HCl (5% DMSO) to 50.0 mL 0.1 M KCl (5% DMSO), and titrating the solution to pH 11.6 with 0.1 M KOH (5% DMSO). The titration was analyzed using the program GLEE to refine for 8 and the slope. For low pH titrations, a strong acid calibration was performed by titrating 50.0 mL 0.1 M KCl with 5% (v/v) DMSO with 0.1 M HCl to pH 1.8. The data were analyzed in an Excel spreadsheet using the SOLVER function to refine for Σ° and the slope. Metrohm Brinkmann 665 Dosimat instruments were the automated burettes used to dispense the titrant, the pH meter was a Fisher Accumet AR 15, and the UV-Vis spectrometer a Hewlett-Packard 8452A. The computer program Labview was the interface from which all these components were orchestrated to run the titrations. A value of −14.20 was used as the pKw to account for the DMSO content.
# 50 mL solutions (5% DMSO) of 50 μM ligand and 20 equivalents (1 mM) each of MES, HEPES, and CHES, were titrated forward and backward between pH 1.9 and 12.7 with standardized 0.1 M KOH and 0.1 M HCl. The data points were collected at constant increments of 0.05 pH units at pH 1.9-11.5, with an equilibration time of 90-500 sec following titrant additions and a 10 min. delay between successive pH readings. Titration data above pH 11.5 was collected at constant increments of 0.10 pH units, to minimize the time at which the electrode is exposed to strongly basic conditions. All absorbance measurements used in the refinement were no more than 1.0 absorbance units. Spectra from 300-450 nm were analyzed (simultaneously) in the program pHAb. Titrations for constants reported with a standard deviation were performed in triplicate (the standard deviation is between individually refined values for each titration).
# 50 mL solutions of 50 μM ligand, 50 μM Th(IV), and 500 μM EDTA (Sigma Aldrich) or DTPA (Pharm-Eco) were titrated forward and backward with standardized 0.1 M KOH and 0.1 M HCl. The data points were collected at constant increments of 0.05 pH units, with an equilibration time of 90-500 sec following titrant additions and a 20-30 min delay between successive pH readings. All absorbance measurements used in the refinement were no more than 1.1 absorbance units. Spectra from 300-450 nm were analyzed (simultaneously) in the program pHAb. The following values for the log β for the formation of Th hydroxides were included in the refinement: [ThOH]^3+, −2.5; [Th(OH)2]^2+, −6.2; Th(OH)4, −17.4; [Th2(OH)2]^6+, −5.9; [Th2(OH)3]^5+, −6.8; [Th4(OH)8]^8+, −20.4; [Th4(OH)12]^4+, −26.6; [Th4(OH)14]^2+, −36.8; [Th4(OH)15]^+, −36.8. The following stability constants for Th with EDTA (DTPA) were also included: log β011, 10.17 (10.45); log β012, 16.28 (18.98); log β013, 18.96 (23.26); log β014, 22.46 (25.91); log β015, 22.46 (27.73); log β110, 23.2 (28.78); log β111, 25.18 (30.94). Spectra of the free ligand, refined from the ligand titrations, were set constant in the refinement as well.
# [2] = cited from earlier work; for Log K1 with thorium(IV): ligands of increasing denticity; for log β110 with Th: literature constant used for comparison and in the refinement; for log β111 with Th: protonated 1:1 Th complex, constant included in the refinement
# [3] = cited from earlier work; for log β011: m=0, l=1, h=1 (ligand protonation), printed among stability constants for Th; for log β012: m=0, l=1, h=2 (ligand protonation); for log β013: m=0, l=1, h=3 (ligand protonation); for log β014: m=0, l=1, h=4 (ligand protonation); for log β015: m=0, l=1, h=5 (ligand protonation)
# [4] = UV-Vis dye (arsenazo III) displacement kinetic experiments; type: binding; settings: 100 mM HEPES pH 7.4, 100 mM KCl, 25° C., qualitative
# Description: Spectra were acquired on an Hewlett-Packard 8453 spectrometer at 25° C. The temperature was controlled by a recirculating water bath connected to a jacketed cell holder. Samples were measured in small volume (50 μL) quartz cuvettes with 1 cm path lengths. Solutions were buffered with 100 mM HEPES at pH 7.4 (at 25° C.) and 100 mM KCl. Complexation of the thorium and dye was performed by combining aqueous stock solutions of standardized Th^4+ in nitric acid (77.9 mM HNO3, pH 1.4, 1 mM) and purified dye (1 mM). The solution was let sit on the bench at room temperature for 30 min, diluted in buffer, and let sit at room temperature for an hour. The absorbance was monitored starting from the addition of ligand, as a solution of DMSO ligand stock solution (5 mM) and buffer (equilibrated for 15 min. beforehand). The A vs. t plots were fit with a first-order decay equation in Origin at wavelengths corresponding to the appearance of free dye (550, 560 nm) and the disappearance of thorium-dye complex (614, 669, 700 nm). The reaction with DOTA was refluxed (and stirred with a magnetic stir bar) and performed on a 3 mL scale (instead of 100 μL) in a 10 mL round-bottom flask, placed in an oil bath, and fitted with a reflux condenser. Aliquots were taken periodically and transferred to a cuvette for UV-Vis spectra acquisition. […]
# [5] = Stopped-flow UV-Vis kinetics of direct association with Th(IV); type: binding; settings: 5 μM Th, 10-25 equivalents of ligand, 100 mM HEPES (pH 7.4), 5% DMSO; average of four experiments
# Description: The stopped-flow kinetic experiments were performed using a stopped-flow apparatus equipped with an OLis rapid-scanning monochromator 1000 and a 75 W Xe lamp. Upon electronic activation, the apparatus (powered with a gas source, in this case, Ar) mixes 100 μL of each solution in the two syringes into a mixing chamber. This mixture is flowed into a separate chamber, where the flow is stopped and UV spectra are taken. One syringe contained 10 μM Th(IV) in 77.9 mM HNO3 (pH 1.4), while the other held a solution of 50-300 μM ligand, in 200 mM HEPES (pH 8.3) and 10% DMSO. The 1:1 mixture of these solutions was 5 μM Th, 25-150 μM ligand, 100 mM HEPES (pH 7.4). […] The data were analyzed using the program SpecFit to simultaneously use the absorbance at all of the wavelengths to obtain a second-order rate constant.
# The kinetics of the direct association of L with Th(IV) have been elusive thus far due to the presence of various species in solution (as the metal ion can hydrolyze to form various species such as Th(OH)^3+, Th(OH)2^2+, Th4(OH)12^4+, and Th(OH)4, and L has many protonation states) and the small spectral change upon complexation. […] However, UV-Vis kinetics experiments using a stopped-flow apparatus and more intense light source enabled a direct and quantitative assessment of the complexation. […]
# [6] = 1 μM metal, 10 μM ligand, pH 7.4
structure (smiles),measurement,setting,value
"CNC(=O)c1ccc(C(=O)NCCCN(CCCCN(CCCNC(=O)c2ccc(C(=O)NC)c(O)c2O)C(=O)c2ccc(C(=O)NC)c(O)c2O)C(=O)c2ccc(C(=O)NC)c(O)c2O)c(O)c1O [3,4,3-LiMeTAM]",pM value (negative logarithm of the free metal concentration),[1]; [6],39.2
same,log β110 (cumulative stability constant) with Th(IV),[1],56.1
CC(=O)CC(C)=O [Acac],Log K1 with thorium(IV),[2],7.85
O=C(O)CN(CCN(CC(=O)O)CC(=O)O)CCN(CC(=O)O)CC(=O)O [DTPA],log β011,[3],10.45
same,log β012,[3],18.98
same,log β013,[3],23.26
same,log β014,[3],25.91
same,log β015,[3],27.73
same,Log K1 with thorium(IV),[2],30.34
same,log β110 with Th,[2],28.78
same,log β111 with Th,[2],30.94
O=C(O)CN(CCN(CC(=O)O)CC(=O)O)CC(=O)O [EDTA],log β011,[3],10.17
same,log β012,[3],16.28
same,log β013,[3],18.96
same,log β014,[3],22.46
same,log β015,[3],22.46
same,Log K1 with thorium(IV),[2],25.3
same,log β110 with Th,[2],23.2
same,log β111 with Th,[2],25.18
O=C(O)CN(CCO)CCN(CC(=O)O)CC(=O)O [HEDTA],Log K1 with thorium(IV),[2],18.5
O=C(O)CN(CC(=O)O)CC(=O)O [NTA],Log K1 with thorium(IV),[2],16.9
O=C(O)CN(CCN(CCN(CC(=O)O)CC(=O)O)CC(=O)O)CCN(CC(=O)O)CC(=O)O [TTHA],Log K1 with thorium(IV),[2],31.9
"COCCNC(=O)c1ccc(C(=O)NCCN2CCNC(=O)c3ccc(c(O)c3O)C(=O)NCCN(CCNC(=O)c3ccc(C(=O)NCCOC)c(O)c3O)CCNC(=O)c3ccc(c(O)c3O)C(=O)NCC2)c(O)c1O [phi(2,2)moeTAM, Tren2TAM2[TAM(OMeEtN)]2]",rate of Th(IV) complexation greater than those of DOTA and DTPA,[4],1-2 orders of magnitudes
same,second-order rate constant of complexation of Th(IV),[5],1.6(3)×10^4 M^−1 s^−1
same,pM value (negative logarithm of the free metal concentration),[1]; [6],40.2
same,pM greater than the pM value for DTPA,"[1]; 1 μM metal, 10 μM ligand, pH 7.4, relative to DTPA",14 orders of magnitude
same,pM greater than the pM value for ethyl-TAM,"[1]; 1 μM metal, 10 μM ligand, pH 7.4, relative to ethyl-TAM",21 orders of magnitude
same,log β110 (cumulative stability constant) with Th(IV),[1],53.7(5)
same,log β110 greater than that of DTPA,[1]; relative to DTPA (28.78),over 24 orders of magnitude
